According to US20150260740A1, “COMPOSITION FOR USE AS AN ABNORMAL COAGULATION CONTROL PLASMA IN IN VITRO ASSAYS” (GRIFOLS, S.A., priority 2014, published 2015):

What was measured:
Type in all cases: biochemical
[1] = system: citrated normal human plasma; test: prothrombin time (PT) haemostasis assay; conditions: for effect on percentage of PT activity versus plasma having no anticoagulant: anticoagulant added to normal plasma: ferulic acid 0.5%, 1%, 1.5%, heparin 0.1, 0.5, 1 IU/mL, EDTA 0.5, 1, 1.5 mg/mL, FIG. 1-3; for effect on PT assay: summary statement, added to normal plasma, concentration not stated (EDTA: at a certain concentration)
Procedure: (§1) To assess the effect of different anticoagulants in various haemostasis assays, different plasma compositions were prepared. Use was made of citrated normal human plasma (16 mM of citrate), stored at a temperature of below −70° C. and thawed in a bath at 37° C. HEPES was then added up to a final concentration of 40 mM and the pH was adjusted to between 7.4 and 7.6 using NaOH 1N. Various plasma compositions were prepared. No anticoagulant was added to the first composition, which was used as a control. Increasing concentrations of the anticoagulants being analysed were added to the others: ferulic acid (0.5% , 1% and 1.5%), heparin (0.1 IU/mL, 0.5 IU/mL and 1 IU/mL) and EDTA (0.5 mg/mL, 1 mg/mL, 1.5 mg/mL). Each plasma composition was analysed for the aforementioned PT, aPTT, TT and RT assays in a Q Haemostasis Analyzer (Diagnostic Grifols, Spain) using the reagents DG-PT, DG-APTT Synth, DG-TT L Human and GD-Fibroclotin of Diagnostic Grifols.
FIG. 1-3 show the results obtained in the PT assay with the various anticoagulants and plot the time obtained in the PT assay as a function of the concentration of the anticoagulant present in the plasma. The control (plasma having no anticoagulant) is shown by triangles and the compositions comprising ferulic acid, heparin and EDTA are shown by squares. […] On the other hand, ferulic acid and EDTA added to normal plasma do produce a reduction in the percentage of PT activity.

[2] = system: citrated normal human plasma; test: activated partial thromboplastin time (aPTT) haemostasis assay; conditions: summary statement, added to normal plasma; concentration not stated (EDTA: at a certain concentration)
Procedure: as §1
The same plasmas prepared in Example 1 were tested in the aPTT assay (FIG. 4-6). […] In addition, the prolongation in the result of the assay is proportional to the amount of anticoagulant present in the plasma.

[3] = system: citrated normal human plasma; test: thrombin time (TT) haemostasis assay; conditions: for effect on TT assay result versus plasma having no anticoagulant: anticoagulant added to normal plasma: ferulic acid 0.5%, 1%, 1.5%, heparin 0.1, 0.5, 1 IU/mL, EDTA 0.5, 1, 1.5 mg/mL, FIG. 7-9
Procedure: as §1
The same plasmas prepared in Example 1 were tested in the TT assay. FIG. 7-9 show the TT results obtained when testing the prepared plasmas.

[4] = system: citrated normal human plasma; test: reptilase time (RT) haemostasis assay; conditions: for effect on RT assay result versus plasma having no anticoagulant: anticoagulant added to normal plasma: ferulic acid 0.5%, 1%, 1.5%, heparin 0.1, 0.5, 1 IU/mL, EDTA 0.5, 1, 1.5 mg/mL, FIG. 10-12; for effect on RT assay: summary statement, added to normal plasma, concentration not stated (EDTA: at a certain concentration)
Procedure: as §1
The same plasmas prepared in Example 1 were tested in the RT assay.

| effect on RT assay result versus plasma having no anticoagulant [4] | effect on RT assay [4] | Molecule | effect on percentage of PT activity versus plasma having no anticoagulant [1] | effect on PT assay [1] | effect on aPTT assay [2] | effect on TT assay result versus plasma having no anticoagulant [3] | effect on TT assay ([3]; summary statement, added to normal plasma, EDTA at a certain concentration) |
| --- | --- | --- | --- | --- | --- | --- | --- |
| do produce an abnormal RT result | can prolong the RT assay | O=C(O)CN(CCN(CC(=O)O)CC(=O)O)CC(=O)O [EDTA, ethylenediaminetetraacetic acid] | produce a reduction in the percentage of PT activity that is proportional to the amount of anticoagulant present in the plasma | does not affect the results of PT, aPTT and TT assays, or does so very slightly | does not affect the results of PT, aPTT and TT assays, or does so very slightly | does not prolong the result of the assay | does not affect the results of PT, aPTT and TT assays, or does so very slightly |
| do produce an abnormal RT result | – | COc1cc(/C=C/C(=O)O)ccc1O [ferulic acid] | produce a reduction in the percentage of PT activity that is proportional to the amount of anticoagulant present in the plasma | – | – | do produce an abnormal TT | – |

| Molecule | effect on RT assay result versus plasma having no anticoagulant [4] | effect on RT assay [4] | effect on percentage of PT activity versus plasma having no anticoagulant [1] | effect on PT assay [1] | effect on aPTT assay [2] | effect on TT assay result versus plasma having no anticoagulant [3] | effect on TT assay ([3]; summary statement, added to normal plasma, EDTA at a certain concentration) |
| --- | --- | --- | --- | --- | --- | --- | --- |
| heparin | does not prolong the RT at any of the concentrations tested | does not prolong the RT assay | has no effect on the PT assay | does not affect the PT assay, or does so to a lesser extent | prolongs the aPTT assay | do produce an abnormal TT | – |
